Consider eight compounds from ChEMBL document CHEMBL1201862, “PubChem BioAssay data set” (2004).

A word on the CC50: it is the concentration that lowers cell viability or growth by half. In general, IC50 refers to the midpoint of a concentration-inhibition curve. As a reminder, the AC50 is the concentration giving half of the maximal activity seen. The term EC50 denotes the concentration that produces a half-maximal response.

Activity calls are given as the source filed them. Where only a bound is given, the exact number is not on record here.

Test [1] can be described thus: HEp-2 cell cytotoxicity, dose response, cytotoxicity control for RSV inhibitor project, HTS (AID 2410). The class given is functional. The settings on record: human respiratory syncytial virus.
A short description of test [2]: inhibitors of Bluetongue virus cytopathic effect, confirmation, arbovirus, BSR cells (AID 1250).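 Note: protection from viral cytopathic effect measured as cell viability by ATP luminescence.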 The class given is functional. A general note: Cytopathic effects are the visible damage that an infection or toxin causes in cultured cells.
The target of test [3] is T1, Sphingosine 1-phosphate receptor 4 (Homo sapiens, UniProt O95977).
T1 sequence (O95977 whole entry): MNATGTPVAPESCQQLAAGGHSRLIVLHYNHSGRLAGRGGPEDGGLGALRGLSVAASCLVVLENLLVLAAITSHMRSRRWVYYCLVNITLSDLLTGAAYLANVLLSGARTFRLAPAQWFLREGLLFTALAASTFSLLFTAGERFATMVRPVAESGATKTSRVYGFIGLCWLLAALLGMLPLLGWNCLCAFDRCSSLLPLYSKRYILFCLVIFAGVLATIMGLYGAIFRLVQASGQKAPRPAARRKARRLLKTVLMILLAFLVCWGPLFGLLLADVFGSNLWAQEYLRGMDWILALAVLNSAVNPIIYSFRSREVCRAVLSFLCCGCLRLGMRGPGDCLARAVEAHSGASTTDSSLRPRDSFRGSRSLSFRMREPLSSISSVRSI
Put plainly: Late stage fluorescence dose response cell-based screening assay for antagonists of the Sphingosine 1-Phosphate Receptor 4 (S1P4). [Related pubchem assays: 1524 (Confirmation screen (S1P4 antagonists).), 1510 (Primary screen (S1P4 antagonists).), 1853 (Summary AID (S1P4 antagonists).), 1692 (Dose response screen (S1P4 antagonists).)]. The class given is functional.

The target in test [4] is T1, Sphingosine 1-phosphate receptor 4. Nature of the test: Fluorescence dose response cell-based high throughput screening assay for antagonists of the Sphingosine 1-Phosphate Receptor 4 (S1P4). [Related pubchem assays: 1524 (Confirmation in triplicates.), 1510 (Primary screen.)]. The class given is functional.
Test [5] deals with Sphingosine 1-phosphate receptor 1 (Homo sapiens, UniProt P21453). The class given is functional.
Sphingosine 1-phosphate receptor 1, sequence (P21453 whole entry): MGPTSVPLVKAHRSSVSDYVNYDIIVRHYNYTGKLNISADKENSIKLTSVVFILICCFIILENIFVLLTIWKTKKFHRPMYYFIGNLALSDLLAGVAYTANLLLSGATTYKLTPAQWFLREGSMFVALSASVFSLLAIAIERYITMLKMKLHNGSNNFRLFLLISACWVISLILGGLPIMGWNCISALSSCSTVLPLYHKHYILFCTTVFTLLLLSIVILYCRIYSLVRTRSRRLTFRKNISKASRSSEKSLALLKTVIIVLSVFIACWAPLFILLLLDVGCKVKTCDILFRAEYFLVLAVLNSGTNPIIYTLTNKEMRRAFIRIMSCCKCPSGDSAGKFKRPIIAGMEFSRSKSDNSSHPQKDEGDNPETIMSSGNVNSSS
A further test has as its system INS1. Put plainly: beta cell apoptosis inhibitors, cytokine rescue, dose response, luminescence, retest (AID 449756).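 Note: cell death triggered by IL-1 beta plus TNF-alpha plus IFN-gamma mixture; protective hits raise ATP signal compared with cytokine alone wells.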 The class given is functional, cell-based. The settings on record: Rattus norvegicus.
Test [6] in a line: Luminescence Cell-Based Dose Response to Identify Activators of 5'UTR Stem-Loop Driven Prion Protein mRNA Translation in H4-C Neuroglioblastoma Cells. [Related pubchem assays: 1829 (Project Summary), 1814 (Primary HTS)]. The class given is functional.
The nature of test [7]: Luminescence Cell-Based Dose Response HTS to Identify Activators of Luciferase Translation or Activity in H4 […] Cells. [Related pubchem assays: 1829 (Project Summary), 1814 (Primary HTS)]. The class given is functional.
In another test the test system is H4. Put plainly: Luminescence Cell-Based Dose Response HTS to Identify Activators of 5'UTR Stem-Loop Driven Prion Protein mRNA Translation in H4 Neuroglioblastoma Cells. [Related pubchem assays: 1829 (Project Summary), 1814 (Primary HTS)]. The class given is functional. The settings on record: Homo sapiens.
Test [8] can be described thus: Luminescence Cell-Based Dose Response to Identify Activators of Luciferase Translation or Activity in H4-C Neuroglioblastoma Cells. [Related pubchem assays: 1829 (Project Summary), 1814 (Primary HTS)]. The class given is functional.
The nature of test [9]: Luminescence Cell-Based Dose Confirmation to Identify Activators of 5'UTR Stem-Loop Driven Alpha-Synuclein mRNA Translation in H4 Neuroglioblastoma Cells. [Related pubchem assays: 1829 (Project Summary), 1814 (Primary HTS)]. The class given is functional.
Test [10] has as its target Glyceraldehyde-3-phosphate dehydrogenase (Homo sapiens, UniProt P04406).
For test [11], the target named is T2, Bcl-2-related protein A1 (Mus musculus, UniProt Q07440).
T2 sequence (Q07440 whole entry): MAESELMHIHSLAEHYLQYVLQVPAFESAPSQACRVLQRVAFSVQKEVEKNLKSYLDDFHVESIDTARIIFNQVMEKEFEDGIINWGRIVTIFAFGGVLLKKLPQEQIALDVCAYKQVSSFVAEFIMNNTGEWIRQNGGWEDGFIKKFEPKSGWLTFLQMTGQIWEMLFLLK
Put plainly: Bfl-1 inhibitors blocking BH3 peptide binding, confirmation, biochemical, TR-FRET, mouse Bfl-1 (AID 621). (TR-FRET usually uses a lanthanide donor and a delayed reading to cut background.)

In test [12] the target is T2, Bcl-2-related protein A1. Nature of the test: Bfl-1 binding inhibitors, SAR follow-up, biochemical, fluorescence polarization (AID 1070).
The target of test [13] is Sphingosine 1-phosphate receptor 2 (Homo sapiens, UniProt O95136). Put plainly: Dose Response Cell Based Assay for Agonists of the S1P2 Receptor of Purchased Analogues. [Related pubchem assays: 729, 843, 854, 736 ]. The class given is functional.
Sphingosine 1-phosphate receptor 2, sequence (O95136 whole entry): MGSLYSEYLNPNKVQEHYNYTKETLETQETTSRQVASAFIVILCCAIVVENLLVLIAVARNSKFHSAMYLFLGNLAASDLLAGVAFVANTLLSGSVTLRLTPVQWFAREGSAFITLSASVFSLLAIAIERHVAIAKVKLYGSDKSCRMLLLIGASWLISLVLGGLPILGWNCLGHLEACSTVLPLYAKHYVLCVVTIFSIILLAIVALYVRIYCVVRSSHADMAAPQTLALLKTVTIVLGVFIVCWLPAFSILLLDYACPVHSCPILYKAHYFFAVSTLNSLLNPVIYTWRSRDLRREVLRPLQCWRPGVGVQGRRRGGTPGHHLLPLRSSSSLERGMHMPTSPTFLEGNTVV
In test [14] the target is Epstein-Barr nuclear antigen 1 (Epstein-Barr virus (strain B95-8) (HHV-4) (Human herpesvirus 4), UniProt P03211). Put plainly: EBNA-1 inhibitors, dose response, biochemical, fluorescence polarization, 1536-well (AID 2381).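 Note: fluorescence polarization of a Cy5 DNA probe bound by EBNA-1 protein.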 Details: species or system human gammaherpesvirus 4. (Fluorescence polarisation rises when a labelled molecule tumbles more slowly, as on binding a larger partner.)
Epstein-Barr nuclear antigen 1, sequence (P03211 whole entry): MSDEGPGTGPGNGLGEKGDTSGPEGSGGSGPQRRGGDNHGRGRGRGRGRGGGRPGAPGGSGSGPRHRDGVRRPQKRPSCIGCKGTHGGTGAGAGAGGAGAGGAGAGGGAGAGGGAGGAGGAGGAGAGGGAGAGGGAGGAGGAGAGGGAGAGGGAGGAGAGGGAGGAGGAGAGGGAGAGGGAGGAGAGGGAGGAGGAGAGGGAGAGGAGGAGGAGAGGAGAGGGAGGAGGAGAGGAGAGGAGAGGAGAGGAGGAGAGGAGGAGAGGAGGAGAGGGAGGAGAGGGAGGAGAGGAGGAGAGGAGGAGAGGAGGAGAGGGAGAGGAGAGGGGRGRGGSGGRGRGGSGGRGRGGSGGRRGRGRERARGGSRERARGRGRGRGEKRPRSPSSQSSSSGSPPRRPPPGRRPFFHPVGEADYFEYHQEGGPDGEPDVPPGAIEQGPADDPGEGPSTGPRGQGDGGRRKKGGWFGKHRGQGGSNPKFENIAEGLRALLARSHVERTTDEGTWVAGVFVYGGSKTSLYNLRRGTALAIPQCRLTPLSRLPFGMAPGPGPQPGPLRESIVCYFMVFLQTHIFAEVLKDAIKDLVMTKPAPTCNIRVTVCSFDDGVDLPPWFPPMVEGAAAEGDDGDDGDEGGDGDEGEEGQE

In test [15] the target is Lytic switch protein BZLF1 (Epstein-Barr virus (strain B95-8) (HHV-4) (Human herpesvirus 4), UniProt P03206). Put plainly: EBV ZTA inhibitors, dose response, counter-screen for EBNA-1 inhibitor project, biochemical, fluorescence polarization, Epstein-Barr virus, 1536-well (AID 2377).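 Note: fluorescence polarization of Cy5-labelled ZRE DNA probe bound by purified Zta.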 More on the design: species or system human gammaherpesvirus 4.
Lytic switch protein BZLF1, sequence (P03206 whole entry): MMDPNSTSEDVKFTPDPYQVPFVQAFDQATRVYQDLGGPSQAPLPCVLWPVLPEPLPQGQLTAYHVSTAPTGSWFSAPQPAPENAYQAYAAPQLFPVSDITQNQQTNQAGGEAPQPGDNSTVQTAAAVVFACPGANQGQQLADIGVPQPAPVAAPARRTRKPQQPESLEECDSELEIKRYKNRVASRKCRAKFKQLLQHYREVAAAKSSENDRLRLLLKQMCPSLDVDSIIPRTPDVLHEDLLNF
A further test addresses T3, Leucine aminopeptidase (Plasmodium falciparum 3D7, UniProt Q8IL11).
T3 sequence (Q8IL11 whole entry): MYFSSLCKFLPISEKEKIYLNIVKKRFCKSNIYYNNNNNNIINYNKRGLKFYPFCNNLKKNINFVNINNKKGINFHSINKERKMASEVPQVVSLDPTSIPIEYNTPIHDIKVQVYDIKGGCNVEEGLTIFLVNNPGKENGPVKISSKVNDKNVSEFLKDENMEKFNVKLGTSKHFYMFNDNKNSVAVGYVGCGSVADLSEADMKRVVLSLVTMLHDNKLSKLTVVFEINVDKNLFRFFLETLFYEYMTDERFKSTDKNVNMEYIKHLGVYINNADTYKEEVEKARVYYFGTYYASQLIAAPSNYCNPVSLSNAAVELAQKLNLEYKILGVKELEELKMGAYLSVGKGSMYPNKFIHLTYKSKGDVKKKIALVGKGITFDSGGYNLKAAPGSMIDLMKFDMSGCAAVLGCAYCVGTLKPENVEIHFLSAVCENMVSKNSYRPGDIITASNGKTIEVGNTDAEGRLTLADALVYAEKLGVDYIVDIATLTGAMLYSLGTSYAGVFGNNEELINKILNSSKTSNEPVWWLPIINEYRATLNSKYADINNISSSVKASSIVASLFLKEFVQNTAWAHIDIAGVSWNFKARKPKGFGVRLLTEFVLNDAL
Nature of the test: P. falciparum M17LAP inhibitors, primary screen, biochemical, fluorogenic H-Leu-NHMec substrate, 1536-well (AID 1619). The class given is functional.

For the next test, the target named is Aspartyl aminopeptidase (Plasmodium falciparum 3D7, UniProt Q8I2J3). Nature of the test: Counterscreen for inhibitors of M1 and M17 aminopeptidases: QFRET-based biochemical high throughput dose response assay for inhibitors of the Plasmodium falciparum M18 Aspartyl Aminopeptidase (PFM18AAP). [Related PubChem assays: 1619 (Screening assay (M17LAP inhibitors).), 1445 (Screening assay (M1AAP inhibitors).)].
Aspartyl aminopeptidase, sequence (Q8I2J3 whole entry): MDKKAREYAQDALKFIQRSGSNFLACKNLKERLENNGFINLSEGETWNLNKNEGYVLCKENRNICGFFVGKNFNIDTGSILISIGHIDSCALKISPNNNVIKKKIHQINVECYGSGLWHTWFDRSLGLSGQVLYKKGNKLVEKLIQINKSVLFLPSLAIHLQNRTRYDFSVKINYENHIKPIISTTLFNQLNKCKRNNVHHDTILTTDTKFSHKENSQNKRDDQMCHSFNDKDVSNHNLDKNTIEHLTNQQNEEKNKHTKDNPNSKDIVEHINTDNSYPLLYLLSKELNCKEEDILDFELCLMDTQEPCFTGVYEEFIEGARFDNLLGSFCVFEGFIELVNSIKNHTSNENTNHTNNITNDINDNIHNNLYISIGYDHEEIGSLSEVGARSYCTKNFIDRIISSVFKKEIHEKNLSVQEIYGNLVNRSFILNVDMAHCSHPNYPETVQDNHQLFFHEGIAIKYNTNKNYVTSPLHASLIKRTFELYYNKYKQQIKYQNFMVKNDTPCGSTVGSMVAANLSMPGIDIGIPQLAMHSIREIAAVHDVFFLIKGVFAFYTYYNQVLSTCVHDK

The target of another test is Procathepsin L (Homo sapiens, UniProt P07711). Nature of the test: cathepsin L inhibitors, dose response, counter-screen for M1/M17 aminopeptidase inhibitor project, biochemical, QFRET, 1536-well (AID 2214).
Procathepsin L, sequence (P07711 whole entry): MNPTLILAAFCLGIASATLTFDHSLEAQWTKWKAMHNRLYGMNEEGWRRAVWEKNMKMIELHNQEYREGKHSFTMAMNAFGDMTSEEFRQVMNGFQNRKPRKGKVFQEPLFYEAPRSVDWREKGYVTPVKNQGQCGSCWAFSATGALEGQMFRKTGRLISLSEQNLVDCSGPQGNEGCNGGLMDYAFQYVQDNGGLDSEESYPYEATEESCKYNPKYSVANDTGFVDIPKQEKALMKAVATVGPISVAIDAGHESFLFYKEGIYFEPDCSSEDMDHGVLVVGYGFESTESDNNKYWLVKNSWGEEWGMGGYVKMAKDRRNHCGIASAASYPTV
The next test deals with Cytochrome P450 2C19 (Homo sapiens, UniProt P33261). Nature of the test: Cytochrome panel assay with activity outcomes. Panel member name: p450-cyp2c19 Compounds with AC50 equal or less than 10 uM are considered active. The class given is functional. Particulars: read-out: AC50.
Cytochrome P450 2C19, sequence (P33261 whole entry): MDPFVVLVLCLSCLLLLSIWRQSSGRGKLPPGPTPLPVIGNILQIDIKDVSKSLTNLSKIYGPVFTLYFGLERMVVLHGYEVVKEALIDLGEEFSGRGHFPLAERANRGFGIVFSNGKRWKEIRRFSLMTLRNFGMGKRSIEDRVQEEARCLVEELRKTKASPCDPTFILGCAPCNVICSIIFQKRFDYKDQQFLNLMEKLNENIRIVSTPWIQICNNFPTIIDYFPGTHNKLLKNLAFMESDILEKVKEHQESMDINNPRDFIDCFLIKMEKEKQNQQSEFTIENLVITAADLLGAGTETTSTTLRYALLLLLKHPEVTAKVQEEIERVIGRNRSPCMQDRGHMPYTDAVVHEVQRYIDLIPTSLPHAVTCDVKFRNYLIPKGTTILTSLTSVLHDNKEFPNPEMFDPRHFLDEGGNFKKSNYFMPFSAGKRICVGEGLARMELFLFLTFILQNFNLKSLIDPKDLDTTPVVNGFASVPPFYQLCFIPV
The target of the next test is Cytochrome P450 2C9 (Homo sapiens, UniProt P11712).
Cytochrome P450 2C9, sequence (P11712 whole entry): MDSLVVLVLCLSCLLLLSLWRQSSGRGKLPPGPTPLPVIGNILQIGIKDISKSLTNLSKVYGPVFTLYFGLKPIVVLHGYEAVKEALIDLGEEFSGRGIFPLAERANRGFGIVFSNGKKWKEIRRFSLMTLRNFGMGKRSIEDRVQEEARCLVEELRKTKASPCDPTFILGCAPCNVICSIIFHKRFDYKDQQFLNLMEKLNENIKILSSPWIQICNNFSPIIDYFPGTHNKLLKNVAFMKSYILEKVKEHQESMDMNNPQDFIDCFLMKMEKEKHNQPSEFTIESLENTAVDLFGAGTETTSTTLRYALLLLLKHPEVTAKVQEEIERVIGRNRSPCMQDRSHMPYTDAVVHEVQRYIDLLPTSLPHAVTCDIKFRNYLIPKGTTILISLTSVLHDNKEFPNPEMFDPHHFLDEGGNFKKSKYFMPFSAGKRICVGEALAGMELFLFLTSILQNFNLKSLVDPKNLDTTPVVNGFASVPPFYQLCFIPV
The target of another test is Beta-galactosidase (Escherichia coli, UniProt Q8VNN2). Nature of the test: PubChem AID 485352. The class given is functional.
Beta-galactosidase, sequence (Q8VNN2 whole entry): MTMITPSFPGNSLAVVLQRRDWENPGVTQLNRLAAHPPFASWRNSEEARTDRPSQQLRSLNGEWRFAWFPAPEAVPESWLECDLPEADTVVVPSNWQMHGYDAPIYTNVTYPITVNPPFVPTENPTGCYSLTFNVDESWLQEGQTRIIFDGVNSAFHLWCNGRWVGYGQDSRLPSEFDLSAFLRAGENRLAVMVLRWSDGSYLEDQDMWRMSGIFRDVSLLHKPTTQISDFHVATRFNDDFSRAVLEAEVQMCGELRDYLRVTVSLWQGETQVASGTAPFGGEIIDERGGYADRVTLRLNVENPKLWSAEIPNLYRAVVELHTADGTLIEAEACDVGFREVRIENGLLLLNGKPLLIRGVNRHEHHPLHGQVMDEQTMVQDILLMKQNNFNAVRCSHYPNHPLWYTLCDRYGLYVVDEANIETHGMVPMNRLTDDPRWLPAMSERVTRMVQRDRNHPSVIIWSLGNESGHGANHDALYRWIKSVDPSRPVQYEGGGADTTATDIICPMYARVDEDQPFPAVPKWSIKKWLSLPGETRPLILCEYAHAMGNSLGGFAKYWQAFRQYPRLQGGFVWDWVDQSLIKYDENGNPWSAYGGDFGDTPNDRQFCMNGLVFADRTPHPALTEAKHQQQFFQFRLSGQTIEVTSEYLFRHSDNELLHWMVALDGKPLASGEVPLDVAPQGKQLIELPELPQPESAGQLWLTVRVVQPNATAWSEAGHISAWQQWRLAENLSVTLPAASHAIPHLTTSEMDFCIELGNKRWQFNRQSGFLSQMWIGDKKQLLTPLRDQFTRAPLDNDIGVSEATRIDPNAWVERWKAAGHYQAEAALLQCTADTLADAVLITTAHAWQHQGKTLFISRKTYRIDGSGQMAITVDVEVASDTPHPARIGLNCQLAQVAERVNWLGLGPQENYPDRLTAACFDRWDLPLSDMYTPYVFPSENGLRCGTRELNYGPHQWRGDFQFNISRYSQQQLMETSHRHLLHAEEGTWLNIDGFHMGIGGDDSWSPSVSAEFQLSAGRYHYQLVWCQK
The target of test [16] is T4, Type-1 angiotensin II receptor (Homo sapiens, UniProt P30556).
T4 sequence (P30556 whole entry): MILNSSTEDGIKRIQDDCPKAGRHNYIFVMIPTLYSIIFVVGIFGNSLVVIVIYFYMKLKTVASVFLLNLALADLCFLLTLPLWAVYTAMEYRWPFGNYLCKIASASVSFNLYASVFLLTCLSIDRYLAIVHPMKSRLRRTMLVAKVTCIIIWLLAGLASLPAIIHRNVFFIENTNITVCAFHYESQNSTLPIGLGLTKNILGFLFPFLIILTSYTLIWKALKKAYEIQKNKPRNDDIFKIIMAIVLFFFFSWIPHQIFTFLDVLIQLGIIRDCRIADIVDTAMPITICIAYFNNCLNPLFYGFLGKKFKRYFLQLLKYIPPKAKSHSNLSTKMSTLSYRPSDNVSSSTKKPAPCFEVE
Nature of the test: AT1 receptor antagonists, dose response, selectivity assay for APJ receptor antagonist project, cell-based, uHTS hits (AID 463214).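 Note: antagonist potency against angiotensin II stimulated AT1 response.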 The class given is functional.

Test [17] concerns the target Protein-tyrosine kinase 2-beta (Homo sapiens, UniProt Q14289).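 Note: potency of inhibitors of PYK2 kinase phosphorylation of poly-GT substrate.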

Glyceraldehyde-3-phosphate dehydrogenase, sequence (P04406 whole entry): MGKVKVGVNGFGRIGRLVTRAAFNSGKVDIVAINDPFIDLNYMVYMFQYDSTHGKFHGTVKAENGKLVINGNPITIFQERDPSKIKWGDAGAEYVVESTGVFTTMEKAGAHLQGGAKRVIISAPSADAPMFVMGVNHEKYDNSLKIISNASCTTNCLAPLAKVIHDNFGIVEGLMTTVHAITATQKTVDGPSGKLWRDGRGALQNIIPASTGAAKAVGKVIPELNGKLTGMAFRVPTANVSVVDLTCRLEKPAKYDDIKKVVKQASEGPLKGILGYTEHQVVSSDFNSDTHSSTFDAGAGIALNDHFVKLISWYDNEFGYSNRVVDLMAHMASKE

For `COc1ccc(-c2cc(-c3ccc(OC)c(OC)c3)[nH]n2)c(O)c1`, in test [1], the 50% cytotoxic concentration (CC50) was 46.3 µM (active). Moreover, the IC50 in test [2] was 45.6 µM (active).

With `CCOC(=O)C(=Cc1ccc(Br)cc1)C(=O)OCC`, the half-inhibitory concentration (IC50) in [3] was 0.887 µM (active); in test [4], 0.419 µM (active); in [5] it was 9.77 µM (active). Besides, the AC50 in the test with INS1 was 25 µM (active).

Turning to `Cc1ccsc1C1NC(=O)c2c(sc3c2CCCC3)N1` (stereo not given), the EC50 in test [6] was 1.12 µM (active); in test [7] it was < 0.1 µM (inconclusive); with H4, 48.3 µM (active); in test [8], 0.643 µM (active); in test [9], 0.571 µM (active).

Take `O=C1C(Cl)=C(N2CCOCC2)C(=O)N1c1ccc([N+](=O)[O-])cc1`: the half-maximal inhibitory concentration (IC50) in test [10] is > 100 µM (not active); at Bcl-2-related protein A1 [11], 2.29 µM (active); at Bcl-2-related protein A1 [12], 1.49 µM (active).

For the compound `Cc1cc(C(=O)CN2C(=O)C(=O)N(Cc3ccccc3)C2=O)c(C)n1Cc1ccc(F)cc1`, the concentration for a half-maximal effect (EC50) in test [13] is on record as > 30 µM (not active).

Consider `Cc1ccc(NC(=O)CSc2ccc(-c3ccccn3)nn2)cc1F`, for which the IC50 in test [14] is > 16.4 µM (not active); in test [15], > 111 µM (not active).

For the compound `CCOC(=O)c1c(-c2ccc(C)cc2)csc1NC(=O)C1CC=CCC1C(=O)O` (stereo not given), the figures for the concentration for half-maximal inhibition (IC50) at Leucine aminopeptidase, against Aspartyl aminopeptidase and at Procathepsin L were 4.8 µM (active), > 73.5 µM (not active) and > 59.6 µM (not active), respectively. For the same compound, the AC50 was 28.2 µM (inconclusive) at Cytochrome P450 2C19 and 25.1 µM (inconclusive) on Cytochrome P450 2C9.

On to `CCOCCO/C(O)=C1\C(C)=NC2=C(C(=O)CC(c3cccs3)C2)C1c1ccsc1` (stereo not given), for which the EC50 on Beta-galactosidase was > 40 µM (inactive). In addition, the IC50 is given as > 40 µM (not active) in test [16] and > 69.5 µM (not active) in test [17].
